These results are taken from ChEMBL document CHEMBL5365513, “Discovery of Selective Tertiary Amide Inhibitors of Cyclin-Dependent Kinase 2 (CDK2)” (ACS Med Chem Lett, 2023).

The nature of series [1]: Half life in CD-1 mouse at 1 mg/kg, iv measured for 5 mins by LC-MS/MS analysis. It is filed as ADME, organism-based. To be noted: in vivo; for half-life: CD-1, mouse.
Series [2] is described as follows: Volume of distribution at steady state in CD-1 mouse at 1 mg/kg, iv measured for 5 mins by LC-MS/MS analysis. It is filed as ADME, organism-based. Particulars: in vivo; for Vd: CD-1, mouse, read-out: Vdss.
Series [3] can be described thus: Metabolic stability in mouse liver microsomes assessed as clearance at 1 uM incubated upto 180 mins by LC/MS-MS analysis. The format is ADME, Microsome. For orientation: Microsomes from liver hold many membrane-bound enzymes, among them those of drug oxidation.
The nature of series [4]: Metabolic stability in human liver microsomes assessed as clearance at 1 uM incubated upto 180 mins by LC/MS-MS analysis. It is filed as ADME, Microsome.
Series [5] addresses Cyclin-dependent kinase 2/cyclin E1 (Homo sapiens, UniProt P24941). Briefly: Binding affinity to CDK2/Cyclin E1 (unknown origin) using Ulight-MBP as substrate assessed as inhibition constant preincubated for 30 mins followed by substrate addition measured after 90 mins in presence of ATP by TR-FRET assay. The format is protein-complex assay. On the technique in general: TR-FRET usually uses a lanthanide donor and a delayed reading to cut background.

The nature of series [6]: Selectivity ratio of Ki for CDK4/Cyclin D3 (unknown origin) to Ki for CDK2/Cyclin E1 (unknown origin).
Series [7] is described as follows: Antiproliferative activity against human OVISE cells assessed as inhibition of cell division incubated for 16 hrs by EdU incorporation assay. The format is functional, cell-based.
A short description of series [8]: Selectivity ratio of IC50 for human SK-OV-3 cells to IC50 for human OVISE cells. It is filed as functional.
Series [9] is described as follows: Apparent permeability across apical to basolateral side in MDCK cells at 5 uM measured for 60 to 180 mins by LC-MS/MS analysis. The format is ADME, cell-based, Canis lupus familiaris. To be noted: dog, time 60-180 min.
A short description of series [10]: Lipophilicity, logD of compound at pH 7.4. To be noted: buffer. The format is physicochemical.
A short description of series [11]: Kinetic solubility of compound. The format is physicochemical. Particulars: read-out: Kinetic_solubility.
Series [12] can be described thus: Protein binding in human plasma assessed as unbound fraction incubated for 24 hrs by HPLC analysis. It is filed as ADME, cell-free.
A short description of series [13]: Clearance in CD-1 mouse at 1 mg/kg, iv measured for 5 mins by LC-MS/MS analysis. It is filed as ADME, organism-based. Particulars: in vivo.
The nature of series [14]: AUC (infinity) in CD-1 mouse at 50 mg/kg, po measured for 24 hrs by LC-MS/MS analysis. It is filed as ADME, organism-based. To be noted: in vivo. Also on record: time 24 hrs, dose 50 mg/kg, route po.
Series [15] is described as follows: Oral bioavailability in CD-1 mouse at 50 mg/kg measured for 24 hrs by LC-MS/MS analysis. The format is ADME, organism-based. Particulars: in vivo.
For a further series, the system named is MDR1. As to the kind of experiment: Efflux ratio of apparent permeability across basolateral to apical side to apical to basolateral side in MDCK-MDR1 cells at 5 uM measured for 60 to 180 mins by LC-MS/MS analysis. Particulars: dog, time 60-180 min. The format is ADME, cell-based, Canis lupus familiaris.
The target of series [16] is Cyclin-dependent kinase 1 (Homo sapiens) (UniProt P06493). Briefly: Inhibition of CDK1 (unknown origin) at 0.1 uM.
Series [17] deals with OVCAR-3. Briefly: Antitumor activity against human OVCAR-3 cells xenografted in C.B-17 SCID.bg mouse assessed as tumor growth inhibition at 80 mg/kg, po qd treated for 3 days relative to control. It is filed as functional. To be noted: OVCAR-3, 72 h, time 3 day, read-out: TGI.
The nature of series [18]: Selectivity ratio of Ki for CDK1/Cyclin A2 (unknown origin) to Ki for CDK2/Cyclin E1 (unknown origin).
Series [19] concerns OVCAR-3. Briefly: Antitumor activity against human OVCAR-3 cells xenografted in C.B-17 SCID.bg mouse assessed as tumor growth inhibition at 125 mg/kg, po qd treated for 3 days relative to control. It is filed as functional. Particulars: OVCAR-3, 72 h, time 3 day, read-out: TGI.
Series [20] concerns OVCAR-3. Briefly: Antitumor activity against human OVCAR-3 cells xenografted in C.B-17 SCID.bg mouse assessed as tumor growth inhibition at 50 mg/kg, po bid treated for 3 days relative to control. It is filed as functional. To be noted: OVCAR-3, 72 h, time 3 day, read-out: TGI. (In general: A xenograft is tissue or cells of one species grown in another, often human tumour cells in immunodeficient mice.)

≈ marks a conversion by molar mass, not a printed value. Calls of active or inactive are those of the source. No cut-off for these calls is given here.

Cyclin-dependent kinase 1 (Homo sapiens), sequence (P06493 whole entry, looked up): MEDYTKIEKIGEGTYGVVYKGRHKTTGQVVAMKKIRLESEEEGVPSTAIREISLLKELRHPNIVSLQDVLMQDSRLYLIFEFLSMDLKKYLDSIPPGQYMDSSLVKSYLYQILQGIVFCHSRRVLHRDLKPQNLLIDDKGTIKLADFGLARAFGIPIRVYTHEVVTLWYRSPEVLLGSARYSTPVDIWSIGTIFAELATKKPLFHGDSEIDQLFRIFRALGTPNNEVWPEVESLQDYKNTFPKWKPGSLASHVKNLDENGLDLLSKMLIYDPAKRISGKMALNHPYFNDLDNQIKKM

What is called half-life is the time in which the quantity being followed falls by half. For orientation: Ki means the equilibrium dissociation constant of an inhibitor or competing ligand from its target. The term IC50 denotes the concentration needed to halve the response being measured. For orientation: Papp A→B means how fast a substance crosses the layer from the apical side. As usually defined, the logD is the decadic logarithm of the distribution of all forms, ionised or not, between an organic phase and buffer at a given pH. The term clearance denotes the rate of elimination divided by the concentration. High values mean a high capacity for elimination, low ones a low capacity for elimination. As usually defined, the AUC(0-inf) is the area under the concentration-time curve extrapolated to infinity. Lower therefore signals low exposure. One may read the bioavailability as dose-corrected exposure relative to a reference, in per cent. Low values mean poor availability, high ones good availability. `CNS(=O)(=O)c1ccc(Nc2ncc3ccc(C(=O)N4C[C@@H](C#N)[C@@H]4C)nc3n2)c(F)c1`: the half-life in series [1] was 21.6 min. Further, the Vd in series [2] was 0.35 L/kg. Besides, the CLhep predicted at 1 µM is 3.18 L/h/kg in [3] and 0.66 L/h/kg in series [4]. Further, the Ki in [5] was found to be 0.00044 µM. Further, the Ratio Ki in series [6] is 186. The IC50 in series [7] is 0.053 µM. Also, in series [8], the “Ratio IC50” value is 83. The Papp A→B at 5 µM in series [9] was 50 nm/s. This compound displayed a logD in series [10] of 1.5. Moreover, in series [11], the solubility kinetic was determined as 3 µM (≈ 1.37 µg/mL). Also, the Fu in series [12] is recorded as 0.31%. For the same compound, in [13], the clearance stood at 1.08 L/h/kg. In series [14], this compound yielded an AUC(0-inf) of 5.5 µM·h. In series [15], the bioavailability worked out at 3%.
As usually defined, the Vdss is the apparent volume that relates the amount in the body to the concentration in plasma or blood. A lower Vdss goes with little distribution into tissue. Broadly, the efflux ratio is a quotient of directional permeabilities that is used to spot active efflux. In series [1] (mouse, iv, 1 mg/kg, 5 min), `CNS(=O)(=O)c1ccc(Nc2ncc3ccc(C(=O)N4CC[C@@H]4C)nc3n2)c(F)c1` gave a t1/2 of 17.4 min. The same compound returned a Vdss in [2] (mouse, iv, 1 mg/kg, 5 min) of 1.1 L/kg. Further, the CLhep predicted at 1 µM in series [3] was 3 L/h/kg; in series [4] it was 1.08 L/h/kg. Further, the Ki in [5] stood at 0.00018 µM. In addition, in series [6], the Ratio Ki stood at 250. Besides, the IC50 in series [7] stood at 0.038 µM. Besides, the “Ratio IC50” value in series [8] is 50. Further, the apical-to-basolateral permeability (Papp A→B) at 5 µM in series [9] worked out at 150 nm/s. In addition, in series [10], the logD was 1.8. Moreover, the efflux ratio at 5 µM in the series on MDR1 was 13. In addition, in [11], the solubility kinetic amounted to 31 µM (≈ 13.3 µg/mL). In [12], the Fu is on record as 0.26%. The compound also yielded an AUC(0-inf) in series [14] of 11 µM·h. The compound also registered a bioavailability in [15] of 9%. Further, in [16], the inhibition entry was “Active”. Also, the inhibition in vivo at 80 mg/kg with OVCAR-3 [17] is 85%.
Turning to `CC[C@H](Nc1nc(NCc2cnc(C)cc2C)c2ncn(C(C)C)c2n1)[C@@H](C)O` [CYC-065], the Ratio Ki in series [18] was found to be 61; in series [6] it was 57. The IC50 in series [7] amounted to 1.1 µM.
As for `CNS(=O)(=O)c1ccc(Nc2ncc3ccc(C(=O)N4C[C@@H](OC)[C@@H]4C)nc3n2)c(F)c1`, in series [1], the half-life is 19.8 min. Besides, in series [2], the Vd was determined as 0.78 L/kg. In addition, the CLhep predicted at 1 µM was 3.06 L/h/kg in [3] and 0.564 L/h/kg in series [4]. For the same compound, in [5], the Ki is 0.00018 µM. Also, the Ratio Ki in [6] was found to be 178. Besides, the IC50 in series [7] was determined as 0.025 µM. In [8], the “Ratio IC50” value is recorded as 52. In series [9], the Papp A→B at 5 µM was 170 nm/s. The same compound displayed a logD in series [10] of 1.7. The efflux ratio at 5 µM in the series with MDR1 came out at 16. For the same compound, in series [11], the solubility kinetic stood at 33 µM (≈ 15.2 µg/mL). Further, in series [12], the Fu is 0.28%. Moreover, the clearance in series [13] was 2.34 L/h/kg. Besides, in series [14], the AUC(0-inf) came out at 13 µM·h. Moreover, the bioavailability in [15] amounted to 25%. The inhibition result in [16] was “Active”. The inhibition in vivo at 125 mg/kg with OVCAR-3 [19] came out at 81%. Besides, the inhibition in vivo at 50 mg/kg in the series on OVCAR-3 [20] was found to be 112%.
